The subject of the assay is AP-1 induced transcriptional activity. The assay is described as follows: Cellular Transrepressional Assay (AP-1 luciferase reporter, PMA-activated A549 cells). The settings on record: for Emax: A549, 7 h, read-out: AP-1 Max % inh (Cellular Transrepression Assay); for Emax / AP-1 Max % inh (Cellular Transrepression Assay): maximum inhibition. Type of assay: cell-based. In outline:
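A549 cells stably carrying a 7× AP-1–luciferase reporter were stimulated with 10 ng/ml PMA with or without compound (0.1 nM–40 μM) for 7 h. Luminescence read 10 min after luciferase reagent; EC50 fitted from % decrease versus PMA-only signal.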
For orientation: Reporter assays use an easily measured gene product as a stand-in for the process of interest.

[1] abbreviates: Homo sapiens, Cellular Transrepression Assay.
The mark [2] stands for this setting: Homo sapiens, A549, Cellular Transrepression Assay.

Data on 49 compounds can be found in patent US8034940B2, “Modulators of glucocorticoid receptor, AP-1, and/or NF-κB activity and use thereof” (Bristol-Myers Squibb Company, priority 2006, dated 2011).

Take `CSc1nnc(NC(=O)C(C)(C)[C@H]2c3ccccc3Oc3nc(-c4ccc(C(=O)N5CCCC5)c(F)c4)ccc32)s1` [Example 425]: under setting [1], the Emax is 49.9%. For the same compound, a half-maximal effect under setting [2] (EC50) was put at 84.4 nM.

`CN(C)c1ccc(-c2ccc3c(n2)Oc2ccccc2C3C(C)(C)C(=O)Nc2nncs2)cc1` (stereo not shown) [Example 176]: where the note is “Cellular Transrepression Assay”, the response was half-maximal at 118 nM (EC50) and the “AP-1 Max % inh (Cellular Transrepression Assay)” value (from here on “AP-1 Max % inh”) worked out at 43.54%.

As for `CC(C)(C(=O)Nc1nncs1)[C@H]1c2ccccc2Oc2nc(N3CCCC3)ccc21` [Example 141], the Emax under setting [1] was found to be 44.2%. In addition, under setting [2], it took 92.1 nM to reach a half-maximal effect (EC50).

With `CC(C)(C(=O)Nc1ncns1)[C@H]1c2ccccc2Oc2nc(-c3ccc(C(=O)N4CCCC4)cc3)ccc21` [Example 455], the Emax under setting [1] was found to be 58.6%. Moreover, a half-maximal response under setting [2] (EC50) required 24.6 nM.

Turning to `CC(C)(C(=O)Nc1nncs1)[C@H]1c2ccccc2Oc2nc(-c3ccc(CO)s3)ccc21` [Example 470], under setting [1], the Emax was 43%. Moreover, the midpoint of the response under setting [2], the EC50, lay at 24.6 nM.

Take `CCCCCc1ccc(-c2ccc3c(n2)Oc2ccccc2C3C(C)(C)C(=O)Nc2nncs2)cc1` (stereo not shown) [Example 220]: under “Cellular Transrepression Assay”, the EC50 (in general, the midpoint of the concentration-response curve) is 105 nM and the “AP-1 Max % inh” value is reported as 52.23%.

For the compound `CN(C)C(=O)c1ccc(-c2ccc3c(n2)Oc2ccccc2C3C(C)(C)C(=O)Nc2nncs2)cc1` (stereo not shown) [Example 172], for the setting “Cellular Transrepression Assay”, the EC50 was found to be 13.2 nM and the “AP-1 Max % inh” value turned out to be 59.04%.

As for `CC(C)(C(=O)Nc1nc(-c2ccc(F)c3ccccc23)cs1)C1c2ccccc2-c2ccccc21` [Example 21], under setting [1], the Emax was determined as 60.8%.

`CC(C)(C(=O)Nc1nncs1)[C@H]1c2ccccc2Oc2nc(C3=CCN(C(=O)N4CCCC4)CC3)ccc21` [Example 408]: the Emax under setting [1] stood at 24.1%. Further, the midpoint of the response under setting [2], the EC50, lay at 364 nM.

Turning to `COc1ccc(CNc2ccc3c(n2)Oc2ccccc2[C@@H]3C(C)(C)C(=O)Nc2nncs2)cc1` [Example 140], under setting [1], the Emax was determined as 64.1%. In addition, the EC50 under setting [2] was 93.7 nM.

`CN(C)C(=O)c1ccc(-c2ccc3c(n2)Oc2ccccc2C3C(C)(C)C(=O)Nc2ncns2)cc1` (stereo not shown) [Example 441]: the Emax under setting [1] was 52.4%. This compound registered an EC50 under setting [2] of 63.9 nM.

Consider `CC(C)(C(=O)Nc1nncs1)[C@H]1c2ccccc2Oc2nc(-c3ccc(C(=O)N4CCC(F)(F)CC4)c(F)c3)ccc21` [Example 334], for which, under setting [1], the Emax was 36.2%. Under setting [2], the midpoint of the response, the EC50, lay at 3.36 nM.

Turning to `CN(C)c1nnc(NC(=O)C(C)(C)[C@H]2c3ccccc3Oc3nc(-c4ccc(C(=O)N5CCCC5)c(F)c4)ccc32)s1` [Example 429], the Emax under setting [1] amounted to 41.8%. A half-maximal effect under setting [2] (EC50) was put at 67.3 nM.

For the compound `CC(C)(C(=O)Nc1nncs1)C1c2ccccc2Oc2cc(OC(=O)NC3CCCCC3)ccc21` (stereo not shown) [Example 373], the EC50 (Cellular Transrepression Assay) was determined as 32.8 nM. Further, under setting [1], the Emax amounted to 45.6%.

On to `O=C(c1ccc(-c2ccc3c(n2)Oc2ccccc2C3C2(C(=O)Nc3nncs3)CCC2)cc1)N1CCOCC1` (stereo not shown) [Example 486], for which the Emax under setting [1] was 50.3%. The compound also registered an EC50 under setting [2] of 15.8 nM.

For the compound `COc1ccc(Cc2csc(NC(=O)C(C)(C)C3c4ccccc4Oc4ccccc43)n2)cc1` [Example 33], the Emax under setting [1] was 55.2%. Moreover, the EC50 under setting [2] came out at 31.8 nM.

On to `CCOc1ccc(-c2ccc3c(n2)Oc2ccccc2C3C(C)(C)C(=O)Nc2nncs2)cc1` (stereo not shown) [Example 204], for which, under “Cellular Transrepression Assay”, the midpoint of the response, the EC50, lay at 42.8 nM and the “AP-1 Max % inh” value was found to be 44.75%.

With `CCCN(C)C(=O)c1ccc(-c2ccc3c(n2)Oc2ccccc2C3C(C)(C)C(=O)Nc2nncs2)cc1` (stereo not shown) [Example 254], for the setting “Cellular Transrepression Assay”, it took 23.6 nM to reach a half-maximal effect (EC50) and the “AP-1 Max % inh” value was determined as 41.80%.

On to `CC(C)(C(=O)Nc1nc(Cc2ccc(-c3ccncc3)cc2)cs1)C1c2ccccc2S(=O)(=O)c2ccccc21` [Example 10], for which the Emax under setting [1] came to 86.5%. Besides, under setting [2], the EC50 was 16.8 nM.

Take `Cc1ccc(-c2csc(NC(=O)CC3c4ccccc4Oc4ccccc43)n2)c2ccccc12` [Example 3]: under setting [1], the Emax is 47.8%.

In the case of `CCc1cnc(-c2ccc3c(c2)Oc2ccccc2C3C(C)(C)C(=O)Nc2nncs2)nc1` (stereo not shown) [Example 106], the Emax under setting [1] worked out at 48.4%. The compound also gave an EC50 under setting [2] of 24.1 nM.

As for `COc1ccc2c(c1)Oc1ccccc1C2C(C)(C)C(=O)Nc1nc(-c2ccc(C)c3ccccc23)cs1` (stereo not shown) [Example 46], under setting [1], the Emax is 67.6%. Under setting [2], this compound had an EC50 of 90.2 nM.

With `CCCc1ccc(-c2ccc3c(n2)Oc2ccccc2C3C(C)(C)C(=O)Nc2nncs2)cc1` (stereo not shown) [Example 205], under “Cellular Transrepression Assay”, the EC50 worked out at 8.5 nM and the “AP-1 Max % inh” value was found to be 57.72%.

With `CC(C)(C(=O)Nc1nncs1)[C@H]1c2ccccc2Oc2nc(-c3ccc(C(=O)N4CCC[C@@H]4C(N)=O)cc3)ccc21` [Example 312], the Emax under setting [1] was found to be 73.1%. Under setting [2], the midpoint of the response, the EC50, lay at 267 nM.

For `CC(C)(C(=O)Nc1nncs1)[C@H]1c2ccccc2Oc2nc(-c3ccc(C(=O)NC4CC4)cc3)ccc21` [Example 350], the Emax under setting [1] worked out at 45.1%. For the same compound, under setting [2], a half-maximal effect (EC50) was put at 520 nM.

Consider `CN(C)C(=O)c1ccc(-c2ccc3c(c2)Oc2ccccc2C3C(C)(C)C(=O)Nc2nncs2)nc1` (stereo not shown) [Example 102], for which, under setting [1], the Emax turned out to be 45%. The response under setting [2] was half-maximal at 58 nM (EC50).

As for `Cc1nnc(NC(=O)C(C)(C)[C@H]2c3ccccc3Oc3nc(-c4ccc(C(=O)N(C)C)c(F)c4)ccc32)s1` [Example 474], the Emax under setting [1] came to 37.9%. Moreover, a half-maximal response under setting [2] (EC50) required 85.4 nM.

Take `CC(C)N(C)C(=O)c1ccc(-c2ccc3c(n2)Oc2ccccc2C3C(C)(C)C(=O)Nc2nncs2)cc1` (stereo not shown) [Example 258]: for the setting “Cellular Transrepression Assay”, the EC50 turned out to be 534 nM and the “AP-1 Max % inh” value was determined as 40.99%.

In the case of `CC(C)(C(=O)Nc1nncs1)C1c2ccccc2Oc2cc(/C(N)=N\O)ccc21` (stereo not shown) [Example 115], the Emax under setting [1] amounted to 31.3%. Further, it took 3.9 nM to reach a half-maximal effect under setting [2] (EC50).

As to `CC(=O)N1CCN(C(=O)c2ccc(-c3ccc4c(n3)Oc3ccccc3[C@@H]4C(C)(C)C(=O)Nc3nncs3)cc2)CC1` [Example 274], the Emax under setting [1] came out at 62.2%. Under setting [2], the EC50 came out at 234 nM.

On to `CC(C)(C(=O)Nc1nncs1)[C@H]1c2ccccc2Oc2nc(-c3ccc(C(=O)N4CCCCC4)cc3)ccc21` [Example 247], for which the Emax under setting [1] amounted to 52.4%. The same compound had an EC50 under setting [2] of 4.74 nM.

In the case of `CC(C)(C(=O)Nc1nncs1)C1c2ccccc2Oc2ncccc21` (stereo not shown) [Example 65], the Emax under setting [1] is 32.2%. This compound also displayed an EC50 under setting [2] of 345 nM.

For the compound `CC(C)Oc1ccc(-c2ccc3c(n2)Oc2c(F)cccc2C3C(C)(C)C(=O)Nc2nncs2)cc1F` (racemic) [Example 163], under “Cellular Transrepression Assay”, it took 16.8 nM to reach a half-maximal effect (EC50) and the “AP-1 Max % inh” value is 49.60%.

For the compound `CCOC(=O)c1nnc(NC(=O)C(C)(C)[C@H]2c3ccccc3Oc3nc(-c4ccc(C(=O)N5CCCC5)c(F)c4)ccc32)s1` [Example 417], under setting [1], the Emax is 54.1%. This compound also yielded an EC50 under setting [2] of 67.3 nM.

For `Cc1noc(C)c1-c1ccc(Cc2csc(NC(=O)C(C)(C)C3c4ccccc4Oc4ccccc43)n2)cc1` [Example 43], the Emax under setting [1] was found to be 71.9%. The EC50 under setting [2] worked out at 13.4 nM.

For `CCc1cnc(-c2ccc3c(c2)Oc2ccccc2[C@H]3C(C)(C)C(=O)Nc2nncs2)nc1` [Example 110], under setting [1], the Emax amounted to 35.7%. Also, it took 183 nM to reach a half-maximal effect under setting [2] (EC50).

As to `CN(C)C(=O)c1ccc(-c2ccc3c(n2)Oc2ccccc2[C@@H]3C(C)(C)C(=O)Nc2nncs2)cc1F` [Example 250], the Emax under setting [1] amounted to 48.4%. Further, the EC50 under setting [2] came out at 17.8 nM.

Regarding `Cc1cnc(NC(=O)C(C)(C)[C@H]2c3ccccc3Oc3nc(-c4ccc(C(=O)N(C)C)cc4)ccc32)s1` [Example 444], the Emax under setting [1] amounted to 57.5%. In addition, the EC50 under setting [2] came out at 44.2 nM.

As for `CC(O)c1ccc(-c2ccc3c(n2)Oc2ccccc2C3C(C)(C)C(=O)Nc2nncs2)cc1` (mixture of isomers) [Example 239], under “Cellular Transrepression Assay”, the 50% effective concentration (EC50) came out at 12.4 nM and the “AP-1 Max % inh” value is given as 44.85%.

Take `CC(C)S(=O)(=O)c1ccc(-c2ccc3c(n2)Oc2ccccc2C3C(C)(C)C(=O)Nc2nncs2)cc1` (stereo not shown) [Example 228]: under “Cellular Transrepression Assay”, the EC50 was 51.5 nM and the “AP-1 Max % inh” value amounted to 28.32%.

In the case of `CC(C)(C(=O)Nc1nnc(C(=O)NC2CC2)s1)[C@H]1c2ccccc2Oc2nc(-c3ccc(C(=O)N4CCOCC4)cc3)ccc21` [Example 422], under setting [1], the Emax worked out at 63.5%. The EC50 under setting [2] worked out at 46.7 nM.

As to `CC(C)(C(=O)Nc1nncs1)[C@H]1c2ccccc2Oc2nc(-c3ccc(C(=O)N4CCOCC4)c(Cl)c3)ccc21` [Example 328], under “Cellular Transrepression Assay”, the EC50 turned out to be 18.6 nM and the “AP-1 Max % inh” value was 66.06%.

Turning to `Cc1nnc(NC(=O)C(C)(C)C2c3ccc(-c4ccc(C(=O)N5CCOCC5)cc4)nc3Oc3c(F)cccc32)s1` (stereo not shown) [Example 163], the Emax under setting [1] stood at 64.4%. This compound registered an EC50 under setting [2] of 4.9 nM.

As for `CC(=O)c1ccc(-c2ccc3c(n2)Oc2ccccc2C3C(C)(C)C(=O)Nc2nncs2)cc1` (stereo not shown) [Example 201], where the note is “Cellular Transrepression Assay”, the response was half-maximal at 36.3 nM (EC50) and the “AP-1 Max % inh” value turned out to be 65.46%.

Turning to `CC(=O)c1ccc(-c2ccc3c(n2)Oc2ccccc2C3C(C)(C)C(=O)Nc2nncs2)cc1F` (stereo not shown) [Example 229], for the setting “Cellular Transrepression Assay”, the EC50 was found to be 42 nM and the “AP-1 Max % inh” value stood at 39.34%.

Take `CCCCc1ccc(-c2ccc3c(n2)Oc2ccccc2C3C(C)(C)C(=O)Nc2nncs2)c(C)c1` (stereo not shown) [Example 222]: under “Cellular Transrepression Assay”, the EC50 stood at 100 nM and the “AP-1 Max % inh” value came to 61.88%.

Take `Cc1csc(NC(=O)C(C)(C)[C@H]2c3ccccc3Oc3nc(-c4ccc(C(=O)N(C)C)cc4)ccc32)n1` [Example 443]: the Emax under setting [1] amounted to 51.7%. The compound further displayed an EC50 under setting [2] of 134 nM.

As for `CC(C)(C(=O)Nc1nccs1)C1c2ccccc2-c2ccccc21` [Example 18], under setting [1], the Emax came to 37.6%. Moreover, under setting [2], the EC50 amounted to 542 nM.

On to `Cc1nnc(NC(=O)C(C)(C)C2c3ccc(-c4ccc(C(=O)N(C)C)cc4)nc3Oc3c(F)cccc32)s1` (stereo not shown) [Example 166], for which the EC50 worked out at 43.4 nM (Cellular Transrepression Assay) and 14.5 nM (Cellular Transrepression Assay, listed as 166^a). Also, the Emax under setting [1] is 56.1%.
